Tests used:
HCV polymerase = molecular target: T1, HCV polymerase (Hepatitis C virus genotype 1b, UniProt Q9WMX2); experiment: Polymerase assay of Biological Example 1 (IC50 values of Table 3); assay type: biochemical; settings: IC50 values of Table 3, polymerase assay of Biological Example 1; read-out: NS5B-enzyme3
T1 construct: (His)6 (C); made in house; host or cells: XL-1 cells (E. coli, by own knowledge)
Text: A number of assays have been published to assess these activities. A general method that assesses the gross increase of HCV virus in culture was disclosed in U.S. Pat. No. 5,738,985 to Miles et al. In vitro assays have been reported in Ferrari et al. Jnl. of Vir., 73:1649-1654, 1999; Ishii et al., Hepatology, 29:1227-1235, 1999; Lohmann et al., Jnl of Bio. Chem., 274:10807-10815, 1999; and Yamashita et al., Jnl. of Bio. Chem., 273:15479-15486, 1998.
WO 97/12033, filed on Sep. 27, 1996, by Emory University, listing C. Hagedorn and A. Reinoldus as inventors, which claims priority to U.S. Provisional Patent Application Ser. No. 60/004,383, filed on September 1995, described an HCV polymerase assay that can be used to evaluate the activity of the of the compounds described herein. Another HCV polymerase assay has been reported by Bartholomeusz, et al., Hepatitis C Virus (HCV) RNA polymerase assay using cloned HCV non-structural proteins; Antiviral Therapy 1996:1 (Supp 4) 18-24.

[1] = tested on: HCV replicon I389luc-ubi-neo/NS3-3′/ET in ET (Huh-lucubineo-ET) cells; experiment: Replicon assay (Biological Example 2), luciferase readout; assay type: cell-based; settings: Hepatitis C virus
Procedure: A cell line, ET (Huh-lucubineo-ET) was used for screening of compounds for inhibiting HCV RNA dependent RNA polymerase. The ET cell line was stably transfected with RNA transcripts harboring a I389luc-ubi-neo/NS3-3′/ET; replicon with firefly luciferase-ubiquitin-neomycin phosphotransferase fusion protein and EMCV-IRES driven NS3-5B polyprotein containing the cell culture adaptive mutations (E1202G; T12801; K1846T) (Krieger at al, 2001 and unpublished). The ET cells were grown in DMEM (Dulbeco's Modified Eagle's Medium), supplemented with 10% fetal calf serum, 2 mM Glutamine, Penicillin (100 IU/mL)/Streptomycin (100 μg/mL), 1× nonessential amino acids, and 250 μg/mL G418 (“Geneticin”). Reagents were all available through Life Technologies (Bethesda, Md.). The cells were plated at 0.5-1.0×10^4 cells/well in the 96 well plates and incubated for 24 hrs before adding test compound. The compounds were added to the cells to achieve a final concentration of 0.1 nM to 50 μM and a final DMSO (dimethylsulfoxide) concentration of 0.5%. Luciferase activity was measured 48 hours later by adding a lysis buffer and the substrate (Catalog number Glo-lysis buffer E2661 and Bright-Glo luciferase system E2620 Promega, Madison, Wis.). Cells should not be too confluent during the assay. Percent inhibition of replication data was plotted relative to no compound control. To determine the EC50 (effective concentration at which 50% of the maximum inhibition was observed), a 10 point, 3-fold serial dilution for each compound was used, which spans a concentration range of […]. EC50 values were calculated by fitting % inhibition at each concentration to the following equation: % inhibition=100%/[(EC50/[I])^b+1] where b was Hill's coefficient.
In other aspects the EC50 was equal to or less than 10 μM. In still other aspects the EC50 was equal to or less than 1 μM.

[2] = ET cells, luciferase activity 48 hours after compound

IC50 (HCV polymerase) [nM]	Compound	IC50 [1, 2] [nM]	IC50 ([1]; between 100 nM and 5.0 uM) [nM]
	O=C(O)c1sc(-c2ccccc2)cc1N1C(=O)CC[C@H]1C1CCCCC1 [Compound 6, 3-((S)-2-Cyclohexyl-5-oxo-pyrrolidin-1-yl)-5-phenyl-thiophene-2-carboxylic acid]		100 to 5000
3650	CC(C)(C)OC(=O)N1CC(=O)N(c2cc(-c3ccccc3)sc2C(=O)O)[C@H](C2CCCCC2)C1 [Compound 14, (R)-4-(2-Carboxy-5-phenyl-thiophen-3-yl)-3-cyclohexyl-5-oxo-piperazine-1-carboxylic acid tert-butyl ester]		
	CC1CCN(c2ccc(S(=O)(=O)N3CC(=O)N(c4cc(-c5ccccc5)sc4C(=O)O)C(C4CCCCC4)C3)cn2)CC1 (centres unmarked) [Compound 96, 3-[2-Cyclohexyl-4-(4-methyl-3,4,5,6-tetrahydro-2H-[1,2′]bipyridinyl-5′-sulfonyl)-6-oxo-piperazin-1-yl]-5-phenyl-thiophene-2-carboxylic acid]	≤ 100	
	C[C@@H]1CCCN1c1ccc(S(=O)(=O)N2CC(=O)N(c3cc(-c4ccc(Cl)cc4)sc3C(=O)O)[C@H](C3CCCCC3)C2)cn1 [Compound 201, 5-(4-Chloro-phenyl)-3-{(R)-2-cyc!ohexyl-4-[6-((R)-2-methyl-pyrrolidin-1-yl)-pyridine-3-sulfonyl]-6-oxo-piperazin-1-yl}-thiophene-2-carboxylic acid]	≤ 100	
	O=C(O)c1sc(-c2ccccc2)cc1N1C(=O)CN(S(=O)(=O)c2ccc(-c3ccncc3)nc2)C[C@H]1C1CCCCC1 [Compound 207]		100 to 5000
	CC1(C)CCN(c2ccc(S(=O)(=O)N3CC(=O)N(c4cc(-c5ccccc5)sc4C(=O)O)[C@H](C4CCCCC4)C3)cn2)C1 [Compound 219, 3-{(R)-2-Cyclohexyl-4-[6-(3,3-dimethyl-pyrrolidin-1-yl)-pyridine-3-sulfonyl]-6-oxo-piperazin-1-yl}-5-phenyl-thiophene-2-carboxylic acid]	≤ 100	
	CN1CCN(c2ccc(-c3ccc(S(=O)(=O)N4CC(=O)N(c5cc(-c6ccccc6)sc5C(=O)O)[C@H](C5CCCCC5)C4)cn3)cn2)CC1 [Compound 224, 3-{(R)-2-Cyclohexyl-4-[6′-(4-methyl-piperazin-1-yl)-[2,3′]bipyridinyl-5-sulfonyl]-6-oxo-piperazin-1-yl}-5-phenyl-thiophene-2-carboxylic acid]	≤ 100	
	O=C(O)c1sc(-c2ccc(F)cc2)cc1N1C(=O)CN(S(=O)(=O)c2ccc(N3CC4CC3CO4)nc2)C[C@H]1C1CCCCC1 (stereo partly drawn) [Compound 228, 3-{(R)-2-Cyclohexyl-4-[6-(2-oxa-5-aza-bicyclo[2.2.1]hept-5-yl)-pyridine-3-sulfonyl]-6-oxo-piperazin-1-yl}-5-(4-fluoro-phenyl)-thiophene-2-carboxylic acid]	≤ 100	
	O=C(O)c1sc(-c2ccc(F)cc2)cc1N1C(=O)CN(S(=O)(=O)c2ccc(N3CCCCC3)nc2)C[C@H]1C1CCCCC1 [Compound 235, 3-[(R)-2-Cyclohexyl-6-oxo-4-(3,4,5,6-tetrahydro-2H-[1,2′]bipyridinyl-5′-sulfonyl)-piperazin-1-yl]-5-(4-fluoro-phenyl)-thiophene-2-carboxylic acid]	≤ 100	
	Cc1oncc1S(=O)(=O)N1CC(=O)N(c2cc(C#CC(C)(C)C)sc2C(=O)O)[C@H](C2CCCCC2)C1 [Compound 240, 3-[(R)-2-Cyclohexyl-4-(5-methyl-isoxazole-4-sulfonyl)-6-oxo-piperazin-1-yl]-5-(3,3-dimethyl-but-1-ynyl)-thiophene-2-carboxylic acid]	≤ 100	
199	O=C(O)c1sc(-c2ccccc2)cc1N1C(=O)CN(Cc2cccc(-n3cccc3)c2)C[C@H]1C1CCCCC1 [Compound 261, 3-[(R)-2-Cyclohexyl-6-oxo-4-(3-pyrrol-1-yl-benzyl)-piperazin-1-yl]-5-phenyl-thiophene-2-carboxylic acid]		
108	Cc1cccc(CN2CC(=O)N(c3cc(-c4ccccc4)sc3C(=O)O)[C@H](C3CCCCC3)C2)c1 [Compound 263, 3-[(R)-2-Cyclohexyl-4-(3-methyl-benzyl)-6-oxo-piperazin-1-yl]-5-phenyl-thiophene-2-carboxylic acid]		
538	Cc1cccc(C)c1CN1CC(=O)N(c2cc(-c3ccccc3)sc2C(=O)O)[C@H](C2CCCCC2)C1 [Compound 264, 3-[(R)-2-Cyclohexyl-4-(2,6-dimethyl-benzyl)-6-oxo-piperazin-1-yl]-5-phenyl-thiophene-2-carboxylic acid]		
601	O=C(O)c1sc(-c2ccccc2)cc1N1C(=O)CN(CC2CCCCC2)C[C@H]1C1CCCCC1 [Compound 265, 3-((R)-2-Cyclohexyl-4-cyclohexylmethyl-6-oxo-piperazin-1-yl)-5-phenyl-thiophene-2-carboxylic acid]		
142	O=C(O)c1sc(-c2ccccc2)cc1N1C(=O)CN(Cc2cccc(F)c2N2CCOCC2)C[C@H]1C1CCCCC1 [Compound 266, 3-[(R)-2-Cyclohexyl-4-(3-fluoro-2-morpholin-4-yl-benzyl)-6-oxo-piperazin-1-yl]-5-phenyl-thiophene-2-carboxylic acid]		
620	O=C(O)c1sc(-c2ccccc2)cc1N1C(=O)CN(CCc2ccccc2)C[C@H]1C1CCCCC1 [Compound 268, 3-((R)-2-Cyclohexyl-6-oxo-4-phenethyl-piperazin-1-yl)-5-phenyl-thiophene-2-carboxylic acid]		
330	Cc1ccccc1CN1CC(=O)N(c2cc(-c3ccccc3)sc2C(=O)O)[C@H](C2CCCCC2)C1 [Compound 269, 3-[(R)-2-Cyclohexyl-4-(2-methyl-benzyl)-6-oxo-piperazin-1-yl]-5-phenyl-thiophene-2-carboxylic acid]		
19	CN(C)c1ccc(CN2CC(=O)N(c3cc(-c4ccccc4)sc3C(=O)O)[C@H](C3CCCCC3)C2)cc1 [Compound 270, 3-[(R)-2-Cyclohexyl-4-(4-dimethylamino-benzyl)-6-oxo-piperazin-1-yl]-5-phenyl-thiophene-2-carboxylic acid]		
5.3	CC(C)(C)C#Cc1cc(N2C(=O)C(CCCS(C)(=O)=O)OC[C@H]2C2CCCCC2)c(C(=O)O)s1 (stereo partly drawn) [Compound 306, 3-[(R)-5-Cyclohexyl-2-(3-methanesulfonyl-propyl)-3-oxo-morpholin-4-yl]-5-(3,3-dimethyl-but-1-ynyl)-thiophene-2-carboxylic acid]		

Compound	IC50 (HCV polymerase) [nM]	IC50 [1, 2] [nM]	IC50 ([1]; between 100 nM and 5.0 uM) [nM]
3-[(2S,5R)-5-Cyclohexyl-2-(2,3-dihydroxy-propyl)-2-methyl-3-oxo-morpholin-4-yl]-5-(3,3-dimethyl-but-1-ynyl)-thiophene-2-carboxylic acid [Compound 326]	882		
CC(C)(C)C#Cc1cc(N2C(=O)[C@H](CCCO)OC[C@H]2C2CCCCC2)c(C(=O)O)s1 (single isomer, unassigned) [Compound 2]	35	≤ 100	
CC(C)(C)C#Cc1cc(N2C(=O)[C@@H](CCCO)OC[C@H]2C2CCCCC2)c(C(=O)O)s1 (single isomer, unassigned) [Compound 3]	4	≤ 100	
CCc1ccc(S(=O)(=O)N2CC(=O)N(c3cc(-c4ccccc4)sc3C(=O)O)C(C3CCCCC3)C2)cc1 (single isomer, unassigned) [Compound 55, 3-[2-Cyclohexyl-4-(4-ethyl-benzenesulfonyl)-6-oxo-piperazin-1-yl]-5-phenyl-thiophene-2-carboxylic acid]	71		100 to 5000
CC(C)(C)C#Cc1cc(N2C(=O)C(CCO)CC[C@H]2C2CCCCC2)c(C(=O)O)s1 (single isomer, unassigned) [Compound 343]	1	≤ 100	
O=C(O)c1sc(-c2ccccc2)cc1N1C(=O)CCC1C1CCCCC1 (centres unmarked) [Compound 1, 3-(2-Cyclohexyl-5-oxo-pyrrolidin-1-yl)-5-phenyl-thiophene-2-carboxylic acid]	181		100 to 5000
O=C(O)c1sc(-c2ccccc2)cc1N1C(=O)CCCC1C1CCCCC1 (centres unmarked) [Compound 4, 3-(2-Cyclohexyl-6-oxo-piperidin-1-yl)-5-phenyl-thiophene-2-carboxylic acid]	73		100 to 5000

— patent US9498483B2, “2,3,5-trisubstituted thiophene compounds and uses thereof” (priority 2010, dated 2016)
